Entries after “also recorded” stand apart in the source; their conditions may differ.

Experiment [1] has as its target recombinant PsauGOBP1. Description: Fluorescence competitive-binding assay with 1-NPN as probe. Set-up: species or system Peridroma saucia. Conditions: mean ± SE; for IC50: 1-NPN displacement, Tris-HCl pH 7.4, 25 °C, read-out: IC50 (concentration of ligand halving the initial fluorescence value); for IC50 / Fluorescence (%) at Maximum Concentration: three experiments; for Fluorescence (%) at Maximum Concentration: remaining 1-NPN fluorescence; for Kd: calculated from IC50 with KD = [IC50]/1 + [1-NPN]/K1-NPN, read-out: KD (calculated dissociation constant). Here is the method:
(§1) Emission fluorescence spectra were recorded on a Hitachi F-4500 at 25 °C, with a 1 cm light path quartz cuvette and 5 nm slits for both excitation and emission. The protein was dissolved in 50 mM Tris-HCl buffer, pH 7.4, and ligands were added as 1 mM methanol solutions. To measure the affinity of the fluorescent ligand N-phenyl-1-naphthylamine (1-NPN) to PsauGOBP1, a […] solution of the protein in 50 mM Tris-HCl, pH 7.4, was titrated with aliquots of 1 mM ligand in methanol to a final concentration of 16 µM. The probe was excited at 337 nm, and emission spectra were recorded between 380 and 450 nm. To analyze the binding affinity of other ligands to PsauGOBP1, a panel of 34 compounds including moth sex pheromones and host plant volatiles were used in the competitive-binding assay. A solution of the protein and 1-NPN, both at the concentration of […], was titrated with 1 mM methanol solutions of each competitor at a concentration of 12 (sex pheromones) or 16 µM (host plant volatiles).
The dissociation constant for 1-NPN and the stoichiometry of binding were obtained by processing the data with GraphPad Prism 6. Dissociation constants of the competitors were calculated from the corresponding IC50 values (concentrations of ligands that reduced the initial fluorescence value of 1-NPN by 50%), using the following equation: KD = [IC50]/1 + [1-NPN]/K1-NPN, where [1-NPN] is the free concentration of 1-NPN, and K1-NPN is the dissociation constant of the protein/1-NPN complex.

In experiment [2] the test system is P. saucia antennae. Description: Electroantennogram (EAG) recording. Conditions: dose 100 µg, two- to three-day-old males and females, versus paraffin oil control, n = 20. Set-up: species or system Peridroma saucia. Here is the method: Individual synthetic nonanal, citral, farnesol, benzaldehyde, (Z)-3-hexenyl acetate, and (Z)-3-hexen-1-ol was diluted with paraffin oil to make each solution of 10 μg/μL. Each solution was added onto a filter paper (0.2 × 1 cm), and the final loading capacity doses of each solution were 100 μg. A 10 μL volume of paraffin oil was used as the control. Two- to three-day-old male and female P. saucia were used to obtain EAG recordings for the six volatiles. As described by Sun et al. with modification, the antennae were cut from the head and used for electro-signal recordings. After a few segments of the tip were cut off, the antenna was glued to the antenna holder (using conductive gel, Spectra 360, Parker Lab, NJ, USA), and the antenna holder was inserted into the EAG probe. The EAG signal was first amplified with a DC/AC preamplifier (Syntech UN-06), and was further processed with Autospike software (Syntech, Hilversum, the Netherlands).
The EAG data were analyzed using GraphPad Prism 6. The level of significance was set at p < 0.05. Unpaired Student’s t-tests were used to compare the EAG responses of male vs. female P. saucia. For comparison of responses to the six volatiles, the EAG data were first subjected to a one-way ANOVA; this was done separately for males and females. If the ANOVA was significant, means were compared with Tukey’s multiple comparison test.

Experiment [3] relates to adult P. saucia. Description: Y-tube olfactometer behavioral bioassay. Type of experiment: in vivo, Peridroma saucia. Here is the method: A Y-tube olfactometer was used to assess the behavioral responses of male and female P. saucia to (Z)-3-hexenyl acetate as described by Yan and Wang with modifications. In brief, the system consisted of a central tube (20 cm long, 6 cm diameter) and two lateral arms (35 cm long, 6 cm diameter). (Z)-3-hexenyl acetate was dissolved in paraffin oil to obtain 10 µg/µL solutions. Filter paper (1 × 2 cm) with 10 µL of sample or 10 µL of paraffin oil was placed in a 250 mL flask. During the test, the room temperature was kept at 24 ± 2 °C with 70% ± 5% humidity and 0.6 lux of red light. […] Moths that moved more than half way along one of the lateral arms and remained for at least 5 s were recorded as having made a choice for the odor offered through that arm. After five individuals were tested, the olfactometer was turned and the flasks were switched in order to avoid positional effects. Tested compounds and paraffin oil were renewed every 5–10 min. The olfactometer and the flask were cleaned with water, ethanol, and acetone at the end of each day.
Chi-squared analyses were performed to determine whether the numbers of P. saucia that made a choice differed between the two odor sources (a 50:50 probability was set for the percentage of moths selecting the control and the test sides. The moths that made no choice were not included in the statistical analysis).

The target of experiment [4] is recombinant PsauGOBP1. Description: Affinity of fluorescent probe 1-NPN to PsauGOBP1 (direct titration). Set-up: species or system Peridroma saucia. Conditions: direct titration 2–16 µM 1-NPN, excitation 337 nm; single binding site; means of three replicates; read-out: dissociation constant of 1-NPN. Here is the method:
as §1
The dissociation constant for 1-NPN and the stoichiometry of binding were obtained by processing the data with GraphPad Prism 6. […]

The mark [5] stands for this setting: sex pheromones, maximum concentration 12 (µM).
Where [6] appears, read: host plant volatiles, maximum concentration 16 (µM).

On to `CC/C=C\CCCCCCCCOC(C)=O` [Z9-12: Ac], for which the IC50 in experiment [1] was more than 20 µM. In addition, in experiment [1] (setting [5]), the “Fluorescence (%) at Maximum Concentration” value (“Fluorescence (%)” below) turned out to be 72 ± 2%.
As to `CCCC/C=C\CCCCCCOC(C)=O` [Z7-12: Ac], the IC50 in experiment [1] was more than 20 µM. In addition, the “Fluorescence (%)” value in experiment [1] (setting [5]) was determined as 74 ± 4%.
`C=C1CCC2CC1C2(C)C` (stereo not drawn) [β-pinene]: in experiment [1], the IC50 was more than 20 µM. Further, the “Fluorescence (%)” value in experiment [1] (setting [6]) came out at 100 ± 2%.
Consider `CCCC/C=C\CCCCCCCCCC=O` [Z11-16: Ald], for which the IC50 in experiment [1] was more than 20 µM. Also, the “Fluorescence (%)” value in experiment [1] (setting [5]) is reported as 89 ± 1%.
For `C=CC(C)=CCC=C(C)C` [Ocimene], in experiment [1], the IC50 is more than 20 µM. In addition, the “Fluorescence (%)” value in experiment [1] (setting [6]) stood at 74 ± 7%.
Take `COC(=O)c1ccccc1O` [Methyl salicylate]: the IC50 in experiment [1] was more than 20 µM. Further, in experiment [1] (setting [6]), the “Fluorescence (%)” value worked out at 73 ± 3%.
In the case of `CC/C=C\C[C@H]1C(=O)CC[C@@H]1CC(=O)O` [Jasmonic acid], the IC50 in experiment [1] is more than 20 µM. For the same compound, the “Fluorescence (%)” value in experiment [1] (setting [6]) worked out at 68 ± 3%.
Turning to `CCCCCCCC=O` [Octanal], the IC50 in experiment [1] is more than 20 µM. The “Fluorescence (%)” value in experiment [1] (setting [6]) was determined as 61 ± 6%.
For `C=C1CC/C=C(\C)CC[C@@H]2[C@@H]1CC2(C)C` [(E)-caryophyllene], in experiment [1], the IC50 was more than 20 µM. Further, the “Fluorescence (%)” value in experiment [1] (setting [6]) was 75 ± 1%.
On to `CC/C=C\CC1=C(C)CCC1=O` [(Z)-jasmone], for which the IC50 in experiment [1] is more than 20 µM. The “Fluorescence (%)” value in experiment [1] (setting [6]) came out at 83 ± 5%.
Regarding `O=Cc1ccccc1` [Benzaldehyde], in experiment [1], the IC50 was found to be 19.3 ± 1.1 µM and the Kd was 9.4 ± 0.5 µM. In addition, the “Fluorescence (%)” value in experiment [1] (setting [6]) came out at 62 ± 2%. The “EAG response of male and female antennae” value in experiment [2] was “strong responses; also recorded: relatively strong”.
For the compound `CCCCCCCO` [Heptanol], the IC50 in experiment [1] was more than 20 µM. In experiment [1] (setting [6]), the “Fluorescence (%)” value is 65 ± 4%.
For `C=C(C)[C@H]1CC=C(C)CC1` [D-limonene], the IC50 in experiment [1] is more than 20 µM. Besides, the “Fluorescence (%)” value in experiment [1] (setting [6]) was found to be 100 ± 5%.
Consider `CCCCCCCCC=O` [Nonanal], for which, in experiment [1], the IC50 was 13.9 ± 0.6 µM and the Kd is 6.8 ± 0.3 µM. For the same compound, the “Fluorescence (%)” value in experiment [1] (setting [6]) is 50 ± 2%. Also, the “EAG response of male and female antennae” value in experiment [2] was “weak EAG responses and weak”.
Take `CCC/C=C/CO` [(E)-2-hexen-1-ol]: in experiment [1], the IC50 is more than 20 µM. The “Fluorescence (%)” value in experiment [1] (setting [6]) came out at 67 ± 2%.
In the case of `CC/C=C\CCO` [(Z)-3-hexen-1-ol], in experiment [1], the IC50 came to 17.4 ± 1.5 µM and the Kd is 8.5 ± 0.6 µM. In experiment [1] (setting [6]), the “Fluorescence (%)” value turned out to be 58 ± 3%. Besides, in experiment [2], the “EAG response of male and female antennae” value is given as “strong responses; also recorded: relatively strong”.
Turning to `CCCCCC/C=C\CCCCCCCC=O` [Z9-16: Ald], the IC50 in experiment [1] was more than 20 µM. For the same compound, the “Fluorescence (%)” value in experiment [1] (setting [5]) is listed as 82 ± 3%.
`C=CC(=C)CC/C=C(\C)CCC=C(C)C` [(E)-β-farnesene]: the IC50 in experiment [1] is more than 20 µM. Also, the “Fluorescence (%)” value in experiment [1] (setting [6]) amounted to 87 ± 4%.
Take `c1ccc2[nH]ccc2c1` [Indole]: in experiment [1], the IC50 was more than 20 µM. In addition, in experiment [1] (setting [6]), the “Fluorescence (%)” value is listed as 70 ± 9%.
The like results for `C=CC(C)(O)CCC=C(C)C` (stereo not drawn) [Linalool] were, in that order, more than 20 µM and 79 ± 2%.
As for `CCC/C=C/C=O` [(E)-2-hexenal], the IC50 in experiment [1] was more than 20 µM. Also, in experiment [1] (setting [6]), the “Fluorescence (%)” value worked out at 64 ± 4%.
`CCCCCCCCCCCCO` [Dodecanol]: the IC50 in experiment [1] was more than 20 µM. Further, in experiment [1] (setting [6]), the “Fluorescence (%)” value was determined as 75 ± 8%.
The like results for `C=CC(=C)CCC=C(C)C` [β-myrcene] were, in that order, more than 20 µM and 94 ± 1%.
Turning to `CCC/C=C/COC(C)=O` [(E)-2-hexenyl acetate], the IC50 in experiment [1] is more than 20 µM. Further, in experiment [1] (setting [6]), the “Fluorescence (%)” value was 77 ± 7%.
Take `CCCCCC/C=C\CCCCCCCCO` [Z9-16: OH]: the IC50 in experiment [1] was more than 20 µM. Also, the “Fluorescence (%)” value in experiment [1] (setting [5]) is 76 ± 1%.
As to `CC/C=C\CCOC(C)=O` [(Z)-3-hexenyl acetate], in experiment [1], the IC50 was 8.2 ± 0.2 µM and the Kd was 4 ± 0.1 µM. Besides, the “Fluorescence (%)” value in experiment [1] (setting [6]) is reported as 19 ± 2%. In addition, in experiment [2], the “EAG response of male and female antennae” value is “strongest responses; also recorded: strongest EAG response; also recorded: strong responses”. In addition, in experiment [3] (females, 10 µL of 10 µg/µL in paraffin oil versus paraffin oil, Y-tube), the “percentage of females showing chemotaxis to the compound” value was determined as 68%. Besides, the “behavioral response (attraction) of both sexes” value in experiment [3] (males and females, choice versus paraffin oil, chi-squared test) was “attractive; also recorded: attracted; also recorded: significant attraction”. Also, the “percentage of males showing chemotaxis to the compound” value in experiment [3] (males, 10 µL of 10 µg/µL in paraffin oil versus paraffin oil, Y-tube) worked out at 64%.
In the case of `CCCC/C=C\CCCCCCCCOC(C)=O` [Z9-14: Ac], the IC50 in experiment [1] was more than 20 µM. Moreover, the “Fluorescence (%)” value in experiment [1] (setting [5]) is 78 ± 2%.
Regarding `CC/C=C\CC1C(=O)CCC1CC(=O)OC` (stereo not drawn) [Methyl jasmonate], in experiment [1], the IC50 was more than 20 µM. In addition, the “Fluorescence (%)” value in experiment [1] (setting [6]) is 80 ± 5%.
As to `CCCC/C=C\CCCCCCCCCCO` [Z11-16: OH], in experiment [1], the IC50 is more than 20 µM. The “Fluorescence (%)” value in experiment [1] (setting [5]) worked out at 70 ± 5%.
Turning to `CCCC/C=C\CCCCCCCCCCOC(C)=O` [Z11-16: Ac], the IC50 in experiment [1] is more than 20 µM. The “Fluorescence (%)” value in experiment [1] (setting [5]) came out at 70 ± 2%.
`CC(=O)OCCc1ccccc1` [Phenylethyl acetate]: in experiment [1], the IC50 was more than 20 µM. For the same compound, the “Fluorescence (%)” value in experiment [1] (setting [6]) stood at 64 ± 2%.
`CCCCCCCCCC=O` [Decanal]: in experiment [1], the IC50 was more than 20 µM. In experiment [1] (setting [6]), the “Fluorescence (%)” value turned out to be 85 ± 2%.
Turning to `CC(C)=CCC/C(C)=C/CC/C(C)=C/CO` [Farnesol], in experiment [1], the IC50 is 13.1 ± 1.2 µM and the Kd is 6.4 ± 0.6 µM. Besides, the “Fluorescence (%)” value in experiment [1] (setting [6]) is on record as 47 ± 4%. Also, the “EAG response of male and female antennae” value in experiment [2] was “weak EAG responses and weak”.
As to `c1ccc(Nc2cccc3ccccc23)cc1` [1-NPN, N-phenyl-1-naphthylamine], the Kd in experiment [4] was 1.9 µM.
As for `CC(C)=CCCC(C)=CC=O` (mixture of isomers) [Citral], in experiment [1], the IC50 came to 11.5 ± 1 µM and the Kd is 5.6 ± 0.4 µM. The “Fluorescence (%)” value in experiment [1] (setting [6]) turned out to be 40 ± 3%. The “EAG response of male and female antennae” value in experiment [2] was “weak EAG responses and weak”.

These data come from paper PMC8540349, “GOBP1 from the Variegated Cutworm Peridroma saucia (Hübner) (Lepidoptera: Noctuidae) Displays High Binding Affinities to the Behavioral Attractant (Z)-3-Hexenyl acetate” (Insects, 2021).
